Where two headings read alike, the source gives them in different places.
Tests used:
U87MG tumour cells = test: Test of in vitro proliferation of U87MG tumour cells; type: cell-based; settings: Homo sapiens, U-87 MG, 72 h, U87MG cells, 72 hours; read-out: U87 Cell Proliferation IC50
Description: Model 4: Test of in vitro Proliferation of U87MG Tumour Cells.
The cell growth is determined with the reagent CellTiter 96 AQueous One Solution Cell Proliferation Assay from Promega (Cat. No. G3581).

[1] = biological target: mTOR (human recombinant aa mTOR 1360-2549) (Homo sapiens (Human), UniProt P42345); test: mTOR enzymatic test by TR-FRET (phosphorylation of GFP-4EBP1); type: biochemical
mTOR (human recombinant aa mTOR 1360-2549), sequence (P42345 1360-2549): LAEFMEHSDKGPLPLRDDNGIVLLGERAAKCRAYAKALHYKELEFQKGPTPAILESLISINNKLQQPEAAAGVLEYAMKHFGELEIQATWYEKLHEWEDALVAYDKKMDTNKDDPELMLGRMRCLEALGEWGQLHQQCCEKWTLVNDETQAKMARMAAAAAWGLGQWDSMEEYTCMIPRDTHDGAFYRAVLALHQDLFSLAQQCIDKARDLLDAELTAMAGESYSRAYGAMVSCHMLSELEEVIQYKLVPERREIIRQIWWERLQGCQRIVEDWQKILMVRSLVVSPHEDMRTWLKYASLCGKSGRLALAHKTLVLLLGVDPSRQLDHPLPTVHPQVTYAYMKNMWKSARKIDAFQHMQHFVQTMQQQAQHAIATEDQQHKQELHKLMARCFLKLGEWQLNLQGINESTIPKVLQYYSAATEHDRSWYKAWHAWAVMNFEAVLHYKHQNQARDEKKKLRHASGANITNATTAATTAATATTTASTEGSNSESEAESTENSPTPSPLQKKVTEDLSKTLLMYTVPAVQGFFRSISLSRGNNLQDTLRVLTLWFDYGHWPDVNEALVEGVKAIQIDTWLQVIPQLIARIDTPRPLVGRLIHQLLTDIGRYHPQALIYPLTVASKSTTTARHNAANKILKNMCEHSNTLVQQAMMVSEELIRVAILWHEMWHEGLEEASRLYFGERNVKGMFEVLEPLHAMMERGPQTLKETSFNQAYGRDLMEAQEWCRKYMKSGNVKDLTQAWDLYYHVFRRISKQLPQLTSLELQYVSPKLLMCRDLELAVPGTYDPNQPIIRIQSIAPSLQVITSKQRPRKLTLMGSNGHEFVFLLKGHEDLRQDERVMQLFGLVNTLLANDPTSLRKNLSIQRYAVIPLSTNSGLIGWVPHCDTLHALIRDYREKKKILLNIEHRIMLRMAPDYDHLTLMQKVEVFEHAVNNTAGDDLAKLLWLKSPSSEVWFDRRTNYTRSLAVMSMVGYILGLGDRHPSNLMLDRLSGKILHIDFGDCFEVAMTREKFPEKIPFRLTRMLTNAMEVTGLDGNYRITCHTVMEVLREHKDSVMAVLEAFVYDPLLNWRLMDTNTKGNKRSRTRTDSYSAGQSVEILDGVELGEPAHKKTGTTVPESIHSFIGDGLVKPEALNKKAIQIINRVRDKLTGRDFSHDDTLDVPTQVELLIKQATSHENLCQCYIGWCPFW
Outline: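 After a 30 min room-temperature kinase reaction, EDTA (10 mM final) and Tb-labelled phospho-Thr46 antibody (2 nM final) were added and incubated 60 min. Energy transfer from Tb to phosphorylated GFP-4EBP1 was read at 340 nm excitation, emissions 490/520 nm. Values derive from the 520/490 fluorescence ratio.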

PI3Kα (p110α/p85α) = PI3Kα (p110α/p85α) (Homo sapiens (Human), UniProt P42336); test: PI3Kα enzymatic test by measuring the consumption of ATP; type: biochemical
PI3Kα (p110α/p85α), sequence (P42336 whole entry): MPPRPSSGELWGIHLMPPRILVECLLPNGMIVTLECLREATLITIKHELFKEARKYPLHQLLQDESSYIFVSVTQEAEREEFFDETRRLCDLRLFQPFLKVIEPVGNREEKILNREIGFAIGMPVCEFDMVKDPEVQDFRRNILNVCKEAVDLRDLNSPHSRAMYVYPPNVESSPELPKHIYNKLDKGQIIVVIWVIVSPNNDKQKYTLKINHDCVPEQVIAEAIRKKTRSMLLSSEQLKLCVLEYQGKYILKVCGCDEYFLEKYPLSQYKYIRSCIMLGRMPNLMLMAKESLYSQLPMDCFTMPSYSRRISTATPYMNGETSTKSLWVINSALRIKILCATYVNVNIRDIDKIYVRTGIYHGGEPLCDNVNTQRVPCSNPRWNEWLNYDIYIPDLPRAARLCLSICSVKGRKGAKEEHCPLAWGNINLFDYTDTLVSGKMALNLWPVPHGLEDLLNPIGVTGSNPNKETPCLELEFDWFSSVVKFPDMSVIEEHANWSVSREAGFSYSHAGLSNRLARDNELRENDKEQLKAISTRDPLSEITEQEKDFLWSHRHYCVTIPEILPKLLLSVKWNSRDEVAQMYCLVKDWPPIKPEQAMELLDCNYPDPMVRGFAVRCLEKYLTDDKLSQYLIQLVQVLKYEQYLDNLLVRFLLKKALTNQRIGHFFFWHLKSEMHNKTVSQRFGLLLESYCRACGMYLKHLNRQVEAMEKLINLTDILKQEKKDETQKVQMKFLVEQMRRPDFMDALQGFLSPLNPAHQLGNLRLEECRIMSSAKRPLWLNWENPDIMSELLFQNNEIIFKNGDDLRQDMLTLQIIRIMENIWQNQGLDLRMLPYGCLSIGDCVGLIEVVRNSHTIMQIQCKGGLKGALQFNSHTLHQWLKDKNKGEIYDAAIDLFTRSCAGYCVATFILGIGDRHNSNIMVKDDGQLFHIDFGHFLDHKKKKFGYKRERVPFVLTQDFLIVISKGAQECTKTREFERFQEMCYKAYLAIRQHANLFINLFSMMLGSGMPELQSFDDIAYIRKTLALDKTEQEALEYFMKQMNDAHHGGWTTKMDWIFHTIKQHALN
PI3Kα (p110α/p85α), sequence (P27986 whole entry partner): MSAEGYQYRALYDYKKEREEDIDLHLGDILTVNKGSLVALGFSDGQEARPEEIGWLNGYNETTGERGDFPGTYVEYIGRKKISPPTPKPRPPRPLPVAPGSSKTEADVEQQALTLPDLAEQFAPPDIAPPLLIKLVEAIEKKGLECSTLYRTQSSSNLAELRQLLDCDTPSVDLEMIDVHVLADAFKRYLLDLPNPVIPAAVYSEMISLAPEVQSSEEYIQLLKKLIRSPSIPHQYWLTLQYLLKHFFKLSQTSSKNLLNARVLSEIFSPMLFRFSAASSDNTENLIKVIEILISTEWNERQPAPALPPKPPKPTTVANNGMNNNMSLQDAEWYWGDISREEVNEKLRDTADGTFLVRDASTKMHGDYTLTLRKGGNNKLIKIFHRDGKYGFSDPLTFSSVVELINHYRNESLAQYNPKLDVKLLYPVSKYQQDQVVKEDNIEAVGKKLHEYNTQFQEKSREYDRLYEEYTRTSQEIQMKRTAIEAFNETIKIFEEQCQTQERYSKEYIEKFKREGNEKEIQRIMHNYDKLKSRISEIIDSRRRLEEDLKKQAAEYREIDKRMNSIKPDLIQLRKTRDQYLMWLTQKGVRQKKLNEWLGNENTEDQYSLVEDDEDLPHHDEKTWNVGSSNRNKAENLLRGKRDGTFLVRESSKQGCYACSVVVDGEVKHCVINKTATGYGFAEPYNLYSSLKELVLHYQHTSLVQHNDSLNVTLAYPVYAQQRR
Outline: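 ATP consumption read out by KinaseGlo luminescence after a 90 min reaction of 1.7 μg/ml PI3Kα (p110α/p85α) with 2 μM ATP and 50 μM PIP2, buffered at pH 7.5 (Tris, 10 mM MgCl2, 1 mM EGTA, 0.03% Chaps, 1 mM DTT). Threefold dilution series over ≥10 000-fold range yield IC50.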

[2] = Homo sapiens, U-87 MG, read-out: U87 Akt-pS473 % Inhibition or IC50, nM (IC50), U87MG cells

Row | SMILES | IC50 (Akt-pS473 in U87MG cells; [2]) | IC50 (U87MG tumour cells) | IC50 [1] | PI3Ka IC50 (PI3Kα (p110α/p85α)) | IC50 (Akt-pS473 in U87MG cells; read-out: U87 Akt-pS473 % Inhibition or IC50, nM (IC50), U87MG cells)
1 | COCCN1CC(C)(C)Oc2nc(N3CC4CCC(C3)O4)nc(-c3ccc(NC(=O)Nc4ccc(F)cc4F)cc3)c2C1=O [Example 162, 1-(2,4-Difluorophenyl)-3-{4-[6-(2-methoxyethyl)-8,8-dimethyl-2-(8-oxa-3-azabicyclo[3.2.1]oct-3-yl)-5-oxo-5,6,7,8-tetrahydro-9-oxa-1,3,6-triazabenzocyclohepten-4-yl]phenyl}urea] | 110 nM | 0.486 µM | 0.147 µM | >10 µM | –
2 | CCN1CC(C)(C)Oc2nc(N3CC4CCC(C3)O4)nc(-c3ccc(NC(=O)OCCO)cc3F)c2C1=O [Example 246, {4-[6-Ethyl-8,8-dimethyl-2-(8-oxa-3-azabicyclo[3.2.1]oct-3-yl)-5-oxo-5,6,7,8-tetrahydro-9-oxa-1,3,6-triazabenzocyclohepten-4-yl]-3-fluorophenyl}carbamic acid 2-hydroxyethyl ester] | 240 nM | 1.6 µM | 0.082 µM | >10 µM | –
3 | CCNC(=O)Nc1ccc(-c2nc(N3CC4CCC(C3)O4)nc3c2C(=O)N(CC)CC(C)(C)O3)cc1 [Example 99, 1-Ethyl-3-{4-[6-ethyl-8,8-dimethyl-2-(8-oxa-3-azabicyclo[3.2.1]oct-3-yl)-5-oxo-5,6,7,8-tetrahydro-9-oxa-1,3,6-triazabenzocyclohepten-4-yl]phenyl}urea] | 40 nM | 0.239 µM | 0.031 µM | >10 µM | –
4 | CCN1CC(C)(C)Oc2nc(N3CC4CCC(C3)O4)nc(-c3ccc(NC(=O)Nc4ccc(C(F)(F)F)nc4)c(F)c3)c2C1=O [Example 230, 1-{4-[6-Ethyl-8,8-dimethyl-2-(8-oxa-3-azabicyclo[3.2.1]oct-3-yl)-5-oxo-5,6,7,8-tetrahydro-9-oxa-1,3,6-triazabenzocyclohepten-4-yl]-2-fluorophenyl}-3-(6-trifluoromethylpyridin-3-yl)urea] | 18 nM | 0.058 µM | 0.077 µM | >10 µM | –
5 | CCN1CC(C)(C)Oc2nc(N3C4CCC3COC4)nc(-c3ccc(NC(=O)OCCO)cc3F)c2C1=O [Example 243, {4-[6-Ethyl-8,8-dimethyl-2-(3-oxa-8-azabicyclo[3.2.1]oct-8-yl)-5-oxo-5,6,7,8-tetrahydro-9-oxa-1,3,6-triazabenzocyclohepten-4-yl]-3-fluorophenyl}carbamic acid 2-hydroxyethyl ester] | 160 nM | 0.61 µM | 0.063 µM | 3.87 µM | –
6 | CCN1CC(C)(C)Oc2nc(N3CC4CCC(C3)O4)nc(-c3ccc(NC(=O)Nc4ccc(OC)nn4)cc3)c2C1=O [Example 146, 1-{4-[6-Ethyl-8,8-dimethyl-2-(8-oxa-3-azabicyclo[3.2.1]oct-3-yl)-5-oxo-5,6,7,8-tetrahydro-9-oxa-1,3,6-triazabenzocyclohepten-4-yl]phenyl}-3-(6-methoxypyridazin-3-yl)urea] | 82 nM | 0.441 µM | 0.035 µM | >10 µM | –
7 | CCN1CC(C)(C)Oc2nc(N3CC4CCC(C3)O4)nc(-c3ccc(NC(=O)Nc4ccc(OC)nc4)c(F)c3)c2C1=O [Example 124, 1-{4-[6-Ethyl-8,8-dimethyl-2-(8-oxa-3-azabicyclo[3.2.1]oct-3-yl)-5-oxo-5,6,7,8-tetrahydro-9-oxa-1,3,6-triazabenzocyclohepten-4-yl]-2-fluorophenyl}-3-(6-methoxypyridin-3-yl)urea] | – | 0.115 µM | 0.02 µM | >10 µM | 61 nM
8 | CCN1CC(C)(C)Oc2nc(N3CC4CCC(C3)O4)nc(-c3ccc(NC(=O)Nc4ccnc(OC)n4)c(F)c3)c2C1=O [Example 144, 1-{4-[6-Ethyl-8,8-dimethyl-2-(8-oxa-3-azabicyclo[3.2.1]oct-3-yl)-5-oxo-5,6,7,8-tetrahydro-9-oxa-1,3,6-triazabenzocyclohepten-4-yl]-2-fluorophenyl}-3-(2-methoxypyrimidin-4-yl)urea] | 142 nM | 2.57 µM | 0.105 µM | >10 µM | –
9 | CCNC(=O)Nc1ccc(-c2nc(N3CCOC[C@@H]3C)nc3c2C(=O)N(CC)CC(C)(C)O3)cc1F [Example 3, 1-Ethyl-3-{4-[6-ethyl-8,8-dimethyl-2-((S)-3-methylmorpholin-4-yl)-5-oxo-5,6,7,8-tetrahydro-9-oxa-1,3,6-triazabenzocyclohepten-4-yl]-2-fluorophenyl}urea] | 48 nM | 0.242 µM | 0.018 µM | 2.11 µM | –
10 | CCNC(=O)Nc1ccc(-c2nc(N3CC4CCC(C3)O4)nc3c2C(=O)N(CCC(=O)O)CC(C)(C)O3)cc1 [Example 7, 3-[4-[4-(3-Ethylureido)phenyl]-8,8-dimethyl-2-(8-oxa-3-azabicyclo[3.2.1]oct-3-yl)-5-oxo-7,8-dihydro-5H-9-oxa-1,3,6-triazabenzocyclohepten-6-yl]propionic acid] | > 3000 nM | > 10 µM | 0.017 µM | >10 µM | –
11 | CCN1CC(C)(C)Oc2nc(N3CC4CCC(C3)O4)nc(-c3ccc(NC(=O)Nc4ccncc4)c(F)c3)c2C1=O [Example 52, 1-{4-[6-Ethyl-8,8-dimethyl-2-(8-oxa-3-azabicyclo[3.2.1]oct-3-yl)-5-oxo-5,6,7,8-tetrahydro-9-oxa-1,3,6-triazabenzocyclohepten-4-yl]-2-fluorophenyl}-3-pyridin-4-ylurea] | 16 nM | 0.029 µM | 0.018 µM | 1.71 µM | –
12 | CCN1CC(C)(C)Oc2nc(N3CC4CCC(C3)O4)nc(-c3ccc(NC(=O)Nc4ccnc(N5CCN(S(C)(=O)=O)CC5)c4)c(F)c3)c2C1=O [Example 80, 1-{4-[6-Ethyl-8,8-dimethyl-2-(8-oxa-3-azabicyclo[3.2.1]oct-3-yl)-5-oxo-5,6,7,8-tetrahydro-9-oxa-1,3,6-triazabenzocyclohepten-4-yl]-2-fluorophenyl}-3-[2-(4-methanesulfonylpiperazin-1-yl)pyridin-4-yl]urea] | 48 nM | 0.151 µM | 0.072 µM | >10 µM | –
13 | CCN1CC(C)(C)Oc2nc(N3CC4CCC(C3)O4)nc(-c3ccc(Nc4nc5ccccc5[nH]4)cc3)c2C1=O [Example 118, 4-[4-(1H-Benzimidazol-2-ylamino)phenyl]-6-ethyl-8,8-dimethyl-2-(8-oxa-3-azabicyclo[3.2.1]oct-3-yl)-7,8-dihydro-6H-9-oxa-1,3,6-triazabenzocyclohepten-5-one] | 32 nM | 0.233 µM | 0.058 µM | 5.04 µM | –
14 | CCN1CC(C)(C)Oc2nc(N3CCOC[C@@H]3C)nc(-c3ccc(NC(=O)Nc4ccc(N5CCN(C)CC5)nc4)cc3)c2C1=O [Example 174, 1-{4-[6-Ethyl-8,8-dimethyl-2-((S)-3-methylmorpholin-4-yl)-5-oxo-5,6,7,8-tetrahydro-9-oxa-1,3,6-triazabenzocyclohepten-4-yl]phenyl}-3-[6-(4-methylpiperazin-1-yl)pyridin-3-yl]urea] | 36 nM | 0.125 µM | 0.022 µM | 0.326 µM | –
15 | CCN1CC(C)(C)Oc2nc(N3CCOC[C@@H]3C)nc(-c3ccc(NC(=O)Nc4ccc(OC)nc4)c(F)c3)c2C1=O [Example 141, 1-{4-[6-Ethyl-8,8-dimethyl-2-((S)-3-methylmorpholin-4-yl)-5-oxo-5,6,7,8-tetrahydro-9-oxa-1,3,6-triazabenzocyclohepten-4-yl]-2-fluorophenyl}-3-(6-methoxypyridin-3-yl)urea] | 19 nM | 0.094 µM | 0.034 µM | 0.598 µM | –
16 | CCNC(=O)Nc1ccc(-c2nc(N3CC4CCC(C3)O4)nc3c2C(=O)N(C2CCN(C)CC2)CC(C)(C)O3)cc1 [Example 132, 1-{4-[8,8-Dimethyl-6-(1-methylpiperidin-4-yl)-2-(8-oxa-3-azabicyclo[3.2.1]oct-3-yl)-5-oxo-5,6,7,8-tetrahydro-9-oxa-1,3,6-triazabenzocyclohepten-4-yl]phenyl}-3-ethylurea] | > 3000 nM | > 10 µM | 0.245 µM | 4.32 µM | –
17 | CCN1CC(C)(C)Oc2nc(N3CC4CCC(C3)O4)nc(-c3ccc(NC(=O)Nc4cnc(OC)nc4)c(F)c3)c2C1=O [Example 136, 1-{4-[6-Ethyl-8,8-dimethyl-2-(8-oxa-3-azabicyclo[3.2.1]oct-3-yl)-5-oxo-5,6,7,8-tetrahydro-9-oxa-1,3,6-triazabenzocyclohepten-4-yl]-2-fluorophenyl}-3-(2-methoxypyrimidin-5-yl)urea] | 37 nM | 0.239 µM | 0.034 µM | >10 µM | –
18 | CCN1CC(C)(C)Oc2nc(N3CCOC[C@@H]3C)nc(-c3ccc(NC(=O)Nc4ccc(N5CCOCC5)nc4)c(F)c3)c2C1=O [Example 187, 1-{4-[6-Ethyl-8,8-dimethyl-2-((S)-3-methylmorpholin-4-yl)-5-oxo-5,6,7,8-tetrahydro-9-oxa-1,3,6-triazabenzocyclohepten-4-yl]-2-fluorophenyl}-3-(6-morpholin-4-ylpyridin-3-yl)urea] | 22 nM | 0.067 µM | 0.037 µM | 0.472 µM | –

— patent publication US9120812B2, “Pyrimidooxazocine derivatives as mTOR-inhibitors” (SANOFI, priority 2012, dated 2015)
